What was measured:
[1] = test system: patients with dry eye disease; assay: Safety and tolerability (TEAEs), Phase 1b study; format: in vivo, human; details: BID for 3 months, both formulations
[2] = test system: patients with dry eye disease; assay: 7-item VAS symptom assessment, Phase 1b study; format: in vivo, human; details: overall study summary
Method: (§1) A multicenter, double-masked, randomized, parallel-group Phase 1b study evaluating the safety, tolerability, and dose-response of AG-80308 ophthalmic solution administered twice daily for 3 months in 84 patients with dry eye disease was conducted. […] 2-Hydroxypropyl-beta-cyclodextrin (HPβCD) was used in formulations A and B. The efficacy measures included both signs (ocular surface staining, tear film breakup time, Schirmer's test, meibomian gland assessments) and symptoms (7-item visual analog scale (VAS) assessments: burning/stinging, itching, foreign body sensation, eye discomfort, eye dryness, photophobia, pain and ocular surface disease index).
(§2) In this study, a single eye drop (approximately 30 μL) of AG-80308 was administered BID (approximately 12 hours apart) to the study eye every day until the Day 84 visit.
The VAS symptom assessment was performed at Visit 1 (Day −30 to Day −2), Visit 2 (Day 1), Visit 3 (Day 15), Visit 4 (Day 43), and Visit 5 (Day 84). Subjects were asked to rate each ocular symptom, unrelated to study drug instillation, by placing a vertical mark on the horizontal line to indicate the level of discomfort. Zero millimeters (mm) corresponds to “no discomfort” and 100 mm corresponds to “maximal discomfort. The symptoms evaluated were burning/stinging, itching, foreign body sensation, eye discomfort, eye dryness, photophobia, and pain. […]

[3] = Stabilisation/solubility of AG-80308 with HPβCD; format: physicochemical; details: storage or stress conditions
[4] = test system: patients with dry eye disease; assay: Ocular surface disease index, Phase 1b study; format: in vivo, human; details: overall study summary
Method: as §1, §2

Preclinical studies = format: in vivo
[5] = test system: patients with dry eye disease; assay: Corneal fluorescein staining (NEI Scale), Phase 1b study; format: in vivo, human; details: for Corneal staining, unit improvement from baseline: p<0.05
Method: as §1, §2
Corneal fluorescein staining was assessed in each eye at Visit 1 (Day −30 to Day −2), Visit 2 (Day 1), Visit 4 (Day 43), and Visit 5 (Day 84) using the NEI Scale. The NEI Scale uses a standardized grading system of 0 to 3 using whole number units for each of the […] areas on each cornea. Grade 0 was specified when no staining is present.

CC(C)C[C@H](NC(=O)Nc1ccc(Br)cc1)C(=O)NCC(=O)O [AG-80308, {[(2S)-2-{[(4-bromophenyl)carbamoyl]amino}-4-methylpentanoyl]amino}acetic acid]
Safety [1]: proven safe | 7-item visual analog scale for dry eye symptoms [2]: clinically meaningful unit reductions | Effect of HPβCD on stability and solubility of AG-80308 [3]: increasing solubility of AG-80308 and its degradant, preventing precipitation | Ocular surface disease index scores [4]: clinically meaningful unit reductions | Efficacy in preclinical studies (Preclinical studies): rapid efficacy similar to steroids without any impairment of wound healing | Safety and tolerability in preclinical studies (Preclinical studies): wide margin of safety and tolerability | Corneal staining, unit improvement from baseline ([5]; Day 43, LS Mean±SE): −2.1±0.57 | Corneal staining, unit improvement from baseline ([5]; Day 84, LS Mean±SE): −2.7±0.57 | Corneal and conjunctival staining ([5]; overall study summary): clinically meaningful unit reductions
